Results from the NIST ThermoML archive (doi:10.1016/j.tca.2012.05.004).

Experiment: xn = mol fraction of the nth substance listed
Details: 101.3 kPa, Liquid, Vibrating tube method

ClCCCl [1,2-dichloroethane] + CC(C)O
mass density [kg/m3]
Details	288.15 K	293.15 K	298.15 K	303.15 K	308.15 K	313.15 K
x2 = 0.05	1235.82	1228.61	1221.38	1214.13	1206.71	1199.46
x2 = 0.1004	1211.74	1204.56	1197.38	1190.17	1182.93	1175.66
x2 = 0.1497	1188.26	1181.19	1174.09	1166.95	1159.78	1152.57
x2 = 0.2	1164.61	1157.64	1150.63	1143.59	1136.5	1129.37
x2 = 0.25	1141.22	1134.37	1127.47	1120.53	1113.54	1106.5
x2 = 0.3002	1117.88	1111.14	1104.37	1097.54	1090.67	1083.74
x2 = 0.3502	1094.71	1088.11	1081.46	1074.76	1068	1061.19
x2 = 0.4001	1071.46	1065.13	1058.72	1052.15	1045.52	1038.83
x2 = 0.4503	1048.29	1042.07	1035.7	1029.28	1022.79	1016.23
x2 = 0.4996	1025.41	1019.32	1013.1	1006.83	1000.49	994.079
x2 = 0.5502	1002	996.011	989.957	983.831	977.648	971.39
x2 = 0.6	978.769	972.943	967.056	961.099	955.079	948.987
x2 = 0.6498	955.713	950.066	944.351	938.562	932.714	926.783
x2 = 0.7	932.242	926.773	921.244	915.641	909.966	904.209
x2 = 0.75	908.934	903.601	898.262	892.85	887.36	881.789
x2 = 0.7996	885.608	880.568	875.378	870.212	864.918	859.549
x2 = 0.8495	861.973	857.114	852.182	847.228	842.144	836.984
x2 = 0.8998	837.957	833.329	828.632	823.858	819.006	814.085
x2 = 0.9497	813.892	809.502	805.032	800.505	795.891	791.195

CCCCCCC(C)O (stereo unspecified) [2-octanol] + ClCCCl
mass density [kg/m3]
Details	288.15 K	293.15 K	298.15 K	303.15 K	308.15 K	313.15 K
x1 = 0.0499	1215.16	1208.22	1201.27	1194.29	1187.27	1180.23
x1 = 0.1	1175.12	1168.45	1161.76	1155.05	1148.31	1141.54
x1 = 0.1503	1139.01	1132.67	1126.33	1119.85	1113.38	1106.89
x1 = 0.2006	1106.43	1100.33	1094.18	1087.99	1081.76	1075.51
x1 = 0.2498	1077.37	1071.56	1065.66	1059.71	1053.73	1047.71
x1 = 0.3	–	–	–	–	1027.49	–
x1 = 0.3002	1050.06	1044.59	1038.96	1033.26	–	1021.69
x1 = 0.35	1025.54	1020.16	1014.7	1009.18	1003.62	998.027
x1 = 0.3999	1002.85	997.633	992.342	987.014	981.649	976.252
x1 = 0.4499	981.685	976.658	971.558	966.415	961.229	956.01
x1 = 0.4999	962.134	957.22	952.273	947.296	942.282	937.233
x1 = 0.5503	943.764	939.011	934.225	929.407	924.551	919.661
x1 = 0.5992	927.273	922.663	918.023	913.351	908.639	903.897
x1 = 0.6492	911.359	906.886	902.382	897.844	893.27	888.66
x1 = 0.6989	896.738	892.39	888.013	883.603	879.157	874.674
x1 = 0.7503	882.325	878.102	873.846	869.558	865.235	860.873
x1 = 0.7989	869.78	865.66	861.514	857.336	853.118	848.865
x1 = 0.8497	857.292	853.282	849.241	845.167	841.058	836.912
x1 = 0.899	845.686	841.775	837.835	833.858	829.849	825.799
x1 = 0.9492	834.672	830.858	827.012	823.127	819.211	815.252

ClCCCl [1,2-dichloroethane] + CCC(C)O
mass density [kg/m3]
Details	288.15 K	293.15 K	298.15 K	303.15 K	308.15 K	313.15 K
x2 = 0.0503	1231.77	1224.62	1217.45	1210.25	1203.02	1195.77
x2 = 0.0999	1204.93	1197.88	1190.8	1183.69	1176.55	1169.4
x2 = 0.1498	1179.01	1172.06	1165.09	1158.09	1151.05	1143.99
x2 = 0.1999	1153.69	1146.88	1140.03	1133.14	1126.22	1119.27
x2 = 0.2505	1128.43	1121.76	1115.05	1108.3	1101.51	1094.68
x2 = 0.2963	1106.34	1099.8	1093.22	1086.6	1079.94	1073.22
x2 = 0.3503	1080.63	1074.29	1067.22	1061.5	1055.06	1048.25
x2 = 0.3995	1057.91	1051.71	1045.45	1039.11	1032.79	1026.29
x2 = 0.4501	1034.98	1028.92	1022.81	1016.66	1010.45	1004.19
x2 = 0.4993	1013.03	1007.13	1001.19	995.186	989.131	983.023
x2 = 0.5486	991.648	985.947	980.168	974.12	968.223	962.22
x2 = 0.6	969.557	963.995	958.381	952.707	946.966	941.176
x2 = 0.6493	948.744	943.35	937.897	932.387	926.811	921.174
x2 = 0.6999	928.023	922.806	917.532	912.188	906.776	901.308
x2 = 0.7499	907.77	902.736	897.63	892.466	887.227	881.93
x2 = 0.7998	887.96	883.21	878.173	873.288	868.11	863.093
x2 = 0.8498	868.538	863.861	859.123	854.308	849.413	844.444
x2 = 0.8997	849.217	844.779	840.238	835.615	830.908	826.085
x2 = 0.95	829.951	825.697	821.349	816.932	812.451	807.826

CCCCC(C)O (stereo unspecified) [2-hexanol] + ClCCCl
mass density [kg/m3]
Details	288.15 K	293.15 K	298.15 K	303.15 K	308.15 K	313.15 K
x1 = 0.0502	1223.08	1216.04	1208.98	1201.9	1194.78	1187.63
x1 = 0.0999	1188.97	1182.13	1175.27	1168.37	1161.45	1154.5
x1 = 0.1504	1157.18	1150.56	1143.9	1137.21	1130.49	1123.74
x1 = 0.2001	1126.22	1120.72	1114.91	1108.44	1101.9	1095.33
x1 = 0.2498	1099.98	1093.76	1087.5	1081.2	1074.85	1068.47
x1 = 0.2995	1073.96	1068.01	1061.96	1055.85	1049.7	1043.51
x1 = 0.3499	1048.88	1043.06	1037.18	1031.25	1025.28	1019.26
x1 = 0.3999	1025.35	1019.69	1013.99	1008.24	1002.45	996.615
x1 = 0.45	1003.14	997.678	992.164	986.594	980.978	975.219
x1 = 0.4994	982.243	976.929	971.582	966.175	960.716	955.218
x1 = 0.5501	961.948	956.802	951.619	946.386	941.113	935.792
x1 = 0.5999	942.875	937.885	932.861	927.787	922.674	917.511
x1 = 0.6498	924.759	919.925	915.048	910.129	905.161	900.15
x1 = 0.6995	907.657	903.05	898.319	893.543	888.715	883.843
x1 = 0.7499	891.009	886.457	881.863	877.224	872.535	867.8
x1 = 0.8004	874.928	870.513	866.056	861.55	856.996	852.392
x1 = 0.8499	859.958	855.674	851.345	846.966	842.537	838.058
x1 = 0.8998	845.485	841.327	837.125	832.874	828.565	824.204
x1 = 0.9482	831.995	827.968	823.889	819.755	815.567	811.322
